In patent publication US9458198B1, “Cyclic peptide-based NPR-B agonists” (priority 2009, dated 2016):
Like-named read-outs stand apart in the source and are kept apart here. Where a SMILES comes first, the peptide text is derived from it. Bridges are numbered along the chain shown (N, C = ends). [ ]: non-standard residue; d: D form.

Target: T1, NPR-B (Homo sapiens, UniProt P20594)
T1 construct: a functional assay using endogenously NPR-B expressing GTM-3 cells; endogenous in cells; host or cells: GTM-3 (transformed human trabecular meshwork cells)
T1 sequence (P20594 23-1047): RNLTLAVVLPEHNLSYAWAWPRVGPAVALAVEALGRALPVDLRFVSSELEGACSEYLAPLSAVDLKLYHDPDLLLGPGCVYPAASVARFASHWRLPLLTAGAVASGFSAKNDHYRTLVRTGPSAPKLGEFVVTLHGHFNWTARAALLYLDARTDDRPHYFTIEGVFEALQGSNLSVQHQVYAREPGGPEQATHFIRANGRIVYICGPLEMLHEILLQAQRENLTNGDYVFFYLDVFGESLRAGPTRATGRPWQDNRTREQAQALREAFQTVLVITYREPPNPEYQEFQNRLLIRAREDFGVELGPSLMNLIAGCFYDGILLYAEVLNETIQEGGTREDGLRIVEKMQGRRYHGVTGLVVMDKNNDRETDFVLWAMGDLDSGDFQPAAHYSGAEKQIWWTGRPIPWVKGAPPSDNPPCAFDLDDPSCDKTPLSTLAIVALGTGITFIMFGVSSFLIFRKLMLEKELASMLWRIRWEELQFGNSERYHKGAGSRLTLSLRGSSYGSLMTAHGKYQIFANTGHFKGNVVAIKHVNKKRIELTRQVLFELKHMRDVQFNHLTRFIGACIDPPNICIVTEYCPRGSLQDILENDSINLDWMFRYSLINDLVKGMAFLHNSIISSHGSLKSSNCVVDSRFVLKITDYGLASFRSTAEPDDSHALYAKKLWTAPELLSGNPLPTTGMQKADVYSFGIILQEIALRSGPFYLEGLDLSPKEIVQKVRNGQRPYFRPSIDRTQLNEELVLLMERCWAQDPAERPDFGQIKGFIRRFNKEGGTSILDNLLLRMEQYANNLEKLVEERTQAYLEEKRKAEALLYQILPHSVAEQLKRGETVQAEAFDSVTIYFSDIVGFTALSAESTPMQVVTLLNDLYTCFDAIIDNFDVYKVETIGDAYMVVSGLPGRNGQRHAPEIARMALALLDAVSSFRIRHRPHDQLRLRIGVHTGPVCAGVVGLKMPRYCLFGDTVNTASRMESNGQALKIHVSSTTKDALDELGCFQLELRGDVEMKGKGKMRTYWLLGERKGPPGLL
Test: NPR-B induced production of cyclic GMP in GTM-3 cells
Assay type: cell-based
Settings: GTM-3 cells, group needs both EC50 and Emax criteria, checked A then B then C
Protocol: The efficacy and potency of compounds to activate NPR-B were evaluated in a functional assay using endogenously NPR-B expressing GTM-3 cells (Pang et al. 1994, Curr Eye Res 13:51-63). In this assay the dose dependent production of cyclic GMP (cGMP) is determined and Emax (maximum activation) and EC50 values are calculated.
The cell culture medium is aspirated and each well is washed with 200 μl DMEM/Ham's F12=Medium (Gibco). Then, 200 μl Medium supplemented with 1 mM IBMX (3-Isobutyl-1-methyl-xanthin, Sigma) is added to each well and incubated for 15 min. at room temperature.
Final compound concentrations are in the range from 45 μM to 20 nM.

[1] = read-out: Activity (group): NPR-B activation, EC50 and Emax (CNP = 100%)

## CC[C@H](C)[C@@H]1NC(=O)[C@H](CCCNC(=N)N)NC(=O)[C@H](CC(=O)O)NC(=O)[C@H](CC(C)C)NC(=O)[C@H](CCCCN)NC(=O)[C@H](CC(C)C)NC(=O)CNC(=O)[C@H](Cc2ccccc2)NC(=O)[C@H](Cc2c[nH]cn2)NC(=O)[C@@H](NC(=O)[C@@H](N)CCSC)CSSC[C@@H](C(=O)N[C@@H](CC(C)C)C(=O)N[C@@H](CCCNC(=N)N)C(N)=O)NC(=O)[C@H](CO)NC1=O [compound 23] (H-MCHFGLKLDRISCLR-NH2; disulfide 2-13)
[1]
  EC50: < 5 µM

## CC[C@H](C)[C@@H]1NC(=O)[C@H](CCCNC(=N)N)NC(=O)[C@H](CC(=O)O)NC(=O)[C@H](CC(C)C)NC(=O)[C@H](CCCCN)NC(=O)[C@H](CC(C)C)NC(=O)CNC(=O)[C@H](Cc2ccccc2)NC(=O)[C@H](Cc2c[nH]cn2)NC(=O)[C@@H](NC(=O)[C@@H](N)CCSC)CSSC[C@@H](C(=O)N[C@@H](CO)C(=O)N[C@@H](CCCNC(=N)N)C(N)=O)NC(=O)[C@H](CO)NC1=O [compound 24] (H-MCHFGLKLDRISCSR-NH2; disulfide 2-13)
[1]
  EC50: < 5 µM

## CC[C@H](C)[C@@H]1NC(=O)[C@H](CCCNC(=N)N)NC(=O)[C@H](CC(=O)O)NC(=O)[C@H](CC(C)C)NC(=O)[C@H](CCCCN)NC(=O)[C@H](CC(C)C)NC(=O)CNC(=O)[C@H](Cc2ccccc2)NC(=O)[C@H](Cc2c[nH]cn2)NC(=O)[C@@H](NC(=O)[C@@H](N)CCSC)CSSC[C@@H](C(=O)N[C@@H](Cc2c[nH]cn2)C(=O)N[C@@H](CCCNC(=N)N)C(N)=O)NC(=O)[C@H](CO)NC1=O [compound 25] (H-MCHFGLKLDRISCHR-NH2; disulfide 2-13)
[1]
  EC50: < 15 µM

## CC[C@H](C)[C@@H]1NC(=O)[C@H](CCCNC(=N)N)NC(=O)[C@H](CC(=O)O)NC(=O)[C@H](CC(C)C)NC(=O)[C@H](CCCCN)NC(=O)[C@H](CC(C)C)NC(=O)CNC(=O)[C@H](Cc2ccccc2)NC(=O)[C@H](Cc2c[nH]cn2)NC(=O)[C@@H](NC(=O)[C@@H](N)CCSC)CSSC[C@@H](C(=O)N[C@@H](Cc2ccc(O)cc2)C(=O)N[C@@H](CO)C(N)=O)NC(=O)[C@H](CO)NC1=O [compound 26] (H-MCHFGLKLDRISCYS-NH2; disulfide 2-13)
[1]
  EC50: < 15 µM

## CC[C@H](C)[C@@H]1NC(=O)[C@H](CCCNC(=N)N)NC(=O)[C@H](CC(=O)O)NC(=O)[C@H](CC(C)C)NC(=O)[C@H](CCCCN)NC(=O)[C@H](CC(C)C)NC(=O)CNC(=O)[C@H](Cc2ccccc2)NC(=O)[C@H](Cc2c[nH]cn2)NC(=O)[C@@H](NC(=O)[C@@H](N)CCSC)CSSC[C@@H](C(=O)N[C@@H](Cc2ccc(O)cc2)C(=O)N[C@@H](CC(N)=O)C(N)=O)NC(=O)[C@H](CO)NC1=O [compound 27] (H-MCHFGLKLDRISCYN-NH2; disulfide 2-13)
[1]
  EC50: < 5 µM

## CC[C@H](C)[C@@H]1NC(=O)[C@H](CCCNC(=N)N)NC(=O)[C@H](CC(=O)O)NC(=O)[C@H](CC(C)C)NC(=O)[C@H](CCCCN)NC(=O)[C@H](CC(C)C)NC(=O)CNC(=O)[C@H](Cc2ccccc2)NC(=O)[C@H](Cc2c[nH]cn2)NC(=O)[C@@H](NC(=O)[C@@H](N)CCSC)CSSC[C@@H](C(=O)N[C@@H](Cc2ccc(O)cc2)C(=O)N[C@@H](Cc2c[nH]cn2)C(N)=O)NC(=O)[C@H](CO)NC1=O [compound 28] (H-MCHFGLKLDRISCYH-NH2; disulfide 2-13)
[1]
  EC50: < 5 µM

## CC[C@H](C)[C@@H]1NC(=O)[C@H](CCCNC(=N)N)NC(=O)[C@H](CC(=O)O)NC(=O)[C@H](CC(C)C)NC(=O)[C@H](CCCCN)NC(=O)[C@H](CC(C)C)NC(=O)CNC(=O)[C@H](Cc2ccc(Cl)cc2)NC(=O)[C@H](Cc2c[nH]cn2)NC(=O)[C@@H](NC(=O)[C@@H](N)CCSC)CSSC[C@@H](C(N)=O)NC(=O)[C@H](CO)NC1=O [compound 29]
[1]
  EC50: < 15 µM

## CC[C@H](C)[C@@H]1NC(=O)[C@H](CCCNC(=N)N)NC(=O)[C@H](CC(=O)O)NC(=O)[C@H](CC(C)C)NC(=O)[C@H](CCCCN)NC(=O)[C@H](CC(C)C)NC(=O)CNC(=O)[C@H](Cc2ccccc2)NC(=O)CCCNC(=O)[C@@H](NC(=O)[C@@H](N)CCSC)CSSC[C@@H](C(N)=O)NC(=O)[C@H](CO)NC1=O [compound 32]
[1]
  EC50: < 15 µM

## CC[C@H](C)[C@@H]1NC(=O)[C@H](CCCNC(=N)N)NC(=O)[C@H](CC(=O)O)NC(=O)[C@H](CC(C)C)NC(=O)[C@H](CCCCN)NC(=O)[C@H](CC(C)C)NC(=O)[C@@H](C)NC(=O)[C@H](Cc2ccccc2)NC(=O)CNC(=O)[C@@H](NC(=O)[C@@H](N)CCSC)CSSC[C@@H](C(N)=O)NC(=O)[C@H](CO)NC1=O [compound 34] (H-MCGF[dA]LKLDRISC-NH2; disulfide 2-13)
[1]
  EC50: < 5 µM

## CC[C@H](C)[C@@H]1NC(=O)[C@H](CCCNC(=N)N)NC(=O)[C@H](CC(=O)O)NC(=O)[C@H](CC(C)C)NC(=O)[C@H](CCCCN)NC(=O)[C@H](CC(C)C)NC(=O)[C@@H](C)NC(=O)[C@H](Cc2ccccc2)NC(=O)[C@@H](Cc2c[nH]cn2)NC(=O)[C@@H](NC(=O)[C@@H](N)CCSC)CSSC[C@@H](C(N)=O)NC(=O)[C@H](CO)NC1=O [compound 35]
[1]
  EC50: < 5 µM

## CC[C@H](C)[C@@H]1NC(=O)[C@H](CCCNC(=N)N)NC(=O)[C@H](CC(=O)O)NC(=O)[C@H](CC(C)C)NC(=O)[C@H](CCCCN)NC(=O)[C@H](CC(C)C)NC(=O)CNC(=O)[C@H](Cc2ccccc2)NC(=O)[C@H]2CCCN2C(=O)[C@@H](NC(=O)[C@@H](N)CCSC)CSSC[C@@H](C(N)=O)NC(=O)[C@H](CO)NC1=O [compound 37]
[1]
  EC50: < 5 µM

## CC[C@H](C)[C@@H]1NC(=O)[C@H](CCCNC(=N)N)NC(=O)[C@H](CC(=O)O)NC(=O)[C@H](CC(C)C)NC(=O)[C@H](CCCCN)NC(=O)[C@H](CC(C)C)NC(=O)CNC(=O)[C@H](Cc2ccccc2)NC(=O)[C@@H](C)NC(=O)[C@@H](NC(=O)[C@@H](N)CCSC)CSSC[C@@H](C(N)=O)NC(=O)[C@H](CO)NC1=O [compound 38]
[1]
  EC50: < 5 µM

## CC[C@H](C)[C@@H]1NC(=O)[C@H](CCCNC(=N)N)NC(=O)[C@H](CC(=O)O)NC(=O)[C@H](CC(C)C)NC(=O)[C@H](CCCCN)NC(=O)[C@H](CC(C)C)NC(=O)CNC(=O)[C@H](Cc2ccccc2)NC(=O)[C@@H](CO)NC(=O)[C@@H](NC(=O)[C@@H](N)CCSC)CSSC[C@@H](C(N)=O)NC(=O)[C@H](CO)NC1=O [compound 39]
[1]
  EC50: < 5 µM

## CC[C@H](C)[C@@H]1NC(=O)[C@H](CCCNC(=N)N)NC(=O)[C@H](CC(=O)O)NC(=O)[C@H](CC(C)C)NC(=O)[C@H](CCCCN)NC(=O)[C@H](CC(C)C)NC(=O)CNC(=O)[C@H](Cc2ccccc2)NC(=O)[C@@H](CC(N)=O)NC(=O)[C@@H](NC(=O)[C@@H](N)CCSC)CSSC[C@@H](C(N)=O)NC(=O)[C@H](CO)NC1=O [compound 40]
[1]
  EC50: < 5 µM

## CC[C@H](C)[C@@H]1NC(=O)[C@H](CCCNC(=N)N)NC(=O)[C@H](CC(=O)O)NC(=O)[C@H](CC(C)C)NC(=O)[C@@H]2CCCN2C(=O)[C@H](CC(C)C)NC(=O)CNC(=O)[C@H](Cc2ccccc2)NC(=O)[C@@H](Cc2c[nH]cn2)NC(=O)[C@@H](NC(=O)[C@@H](N)CCSC)CSSC[C@@H](C(N)=O)NC(=O)[C@H](CO)NC1=O [compound 41] (H-MC[dH]FGLPLDRISC-NH2; disulfide 2-13)
Activity (group): NPR-B activation, EC50 and Emax (CNP = 100%)
  EC50: < 5 µM

## CC[C@H](C)[C@@H]1NC(=O)[C@H](CCCNC(=N)N)NC(=O)[C@H](CC(=O)O)NC(=O)[C@H](CC(C)C)NC(=O)[C@H](CCCNC(=N)N)NC(=O)[C@H](CC(C)C)NC(=O)CNC(=O)[C@H](Cc2ccccc2)NC(=O)[C@@H](Cc2c[nH]cn2)NC(=O)[C@@H](NC(=O)[C@@H](N)CCSC)CSSC[C@@H](C(N)=O)NC(=O)[C@H](CO)NC1=O [compound 42] (H-MC[dH]FGLRLDRISC-NH2; disulfide 2-13)
[1]
  EC50: < 5 µM

## CC[C@H](C)[C@@H]1NC(=O)[C@H](CCCNC(=N)N)NC(=O)[C@H](CC(=O)O)NC(=O)[C@H](CC(C)C)NC(=O)[C@H](CCCCN)NC(=O)[C@H](CC(C)C)NC(=O)CNC(=O)[C@H](Cc2ccccc2)NC(=O)[C@@H](Cc2ccccc2)NC(=O)[C@@H](NC(=O)[C@@H](N)CCSC)CSSC[C@@H](C(N)=O)NC(=O)[C@H](CO)NC1=O [compound 45]
[1]
  EC50: < 15 µM
